Laboratory results taken from publication PMC4820897, “Structural insight in the toppling mechanism of an energy-coupling factor transporter” (Nature Communications, 2016).
One block for each molecule: values may come before it.

Assays:
ECF–FolT2 [1] = biological target: T1, ECF–FolT2 (Lactobacillus delbrueckii, UniProt Q1GBI9+Q1GBJ0); assay: crystal structure […] Å; assay type: binding; conditions: 10 mM MgCl2; one AMP-PNP bound to each of EcfA and EcfA'; ATPase dimer open
T1 construct: gene ecfA1; full ECF complex EcfA-EcfA'-EcfT-FolT2; N-terminal His10-tag and TEV site on EcfA, C-terminal STREPII tag on FolT2; expressed in E. coli MC1061; nucleotide sites on EcfA and EcfA'; with Energy-coupling factor transporter transmembrane protein EcfT; Folate family ECF transporter S component FolT2

FolT2 = biological target: T2, FolT2 (Lactobacillus delbrueckii, UniProt Q1G929); assay: intrinsic fluorescence titration; assay type: binding; conditions: read-out: dissociation constant
T2 construct: gene Ldb1625; solitary S-component, N-terminal His8-tag, expressed in Lactococcus lactis NZ9000, purified in n-nonyl-beta-D-glucopyranoside

FolT1 [2] = biological target: T3, FolT1 (Lactobacillus delbrueckii, UniProt Q1G930); assay: intrinsic fluorescence titration; crystal structure […] Å; assay type: binding; conditions: read-out: dissociation constant
T3 construct: gene Ldb1624; solitary S-component, N-terminal His8-tag, expressed in Lactococcus lactis NZ9000, purified in n-nonyl-beta-D-glucopyranoside

FolT1 [3] = biological target: T4, FolT1 (Lactobacillus delbrueckii, UniProt Q1G930, Y122N); assay: intrinsic fluorescence titration; assay type: binding; conditions: read-out: dissociation constant
T4 construct: gene Ldb1624; solitary S-component, N-terminal His8-tag, expressed in Lactococcus lactis NZ9000, purified in n-nonyl-beta-D-glucopyranoside

ECF–FolT1 = biological target: T5, ECF–FolT1 (Lactobacillus delbrueckii, UniProt Q1G930); assay: radiolabelled folate uptake in proteoliposomes; assay type: biochemical; conditions: luminal MgATP; labelled compound
T5 construct: gene Ldb1624; full ECF complex EcfA-EcfA'-EcfT-FolT1; His10-EcfA, FolT1-STREPII; expressed in E. coli MC1061; reconstituted in proteoliposomes; Energy-coupling factor transporter transmembrane protein EcfT

ECF–FolT2 [4] = biological target: T6, ECF–FolT2 (Lactobacillus delbrueckii, UniProt Q1G929); assay: radiolabelled folate uptake and efflux in proteoliposomes; assay type: biochemical; conditions: 5 mM luminal MgATP, 100 nM folate, pH 7.5, 25 °C; labelled compound
T6 construct: gene Ldb1625; His10-EcfA, FolT2-STREPII; expressed in E. coli MC1061; reconstituted in proteoliposomes; Energy-coupling factor transporter transmembrane protein EcfT

ECF–FolT2 [5] = biological target: T1, ECF–FolT2; assay: coupled-enzyme ATPase assay in proteoliposomes; assay type: biochemical; conditions: 1 mM MgATP, 50 mM KPi pH 7.5, 200 mM NaCl, 30 °C

T1 sequence (Q1GBI8 entry or part of it): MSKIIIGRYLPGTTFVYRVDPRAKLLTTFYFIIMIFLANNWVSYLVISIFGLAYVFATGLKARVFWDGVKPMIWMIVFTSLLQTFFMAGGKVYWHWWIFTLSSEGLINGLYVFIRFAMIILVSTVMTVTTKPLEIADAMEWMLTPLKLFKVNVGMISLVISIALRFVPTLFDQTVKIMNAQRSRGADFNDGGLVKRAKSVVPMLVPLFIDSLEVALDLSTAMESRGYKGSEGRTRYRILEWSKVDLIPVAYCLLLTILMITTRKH
T1 sequence (Q1GBJ0 whole entry): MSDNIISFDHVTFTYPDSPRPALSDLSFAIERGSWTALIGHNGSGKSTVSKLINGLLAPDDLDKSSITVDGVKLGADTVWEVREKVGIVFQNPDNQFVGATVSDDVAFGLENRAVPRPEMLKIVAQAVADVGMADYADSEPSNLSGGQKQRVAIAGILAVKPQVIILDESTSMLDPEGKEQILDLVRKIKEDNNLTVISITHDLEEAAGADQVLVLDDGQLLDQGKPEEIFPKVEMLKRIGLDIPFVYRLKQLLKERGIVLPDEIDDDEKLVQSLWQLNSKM
T1 sequence (Q1GBI9 whole entry): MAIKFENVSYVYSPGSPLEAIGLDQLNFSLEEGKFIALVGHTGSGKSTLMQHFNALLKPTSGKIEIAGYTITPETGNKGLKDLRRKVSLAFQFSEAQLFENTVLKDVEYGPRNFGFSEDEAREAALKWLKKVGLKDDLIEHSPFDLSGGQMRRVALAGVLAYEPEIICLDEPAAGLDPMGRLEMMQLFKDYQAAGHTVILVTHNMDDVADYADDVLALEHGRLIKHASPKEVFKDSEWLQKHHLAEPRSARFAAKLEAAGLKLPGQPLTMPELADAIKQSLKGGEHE
T1 sequence (Q1G929 entry or part of it, further chain): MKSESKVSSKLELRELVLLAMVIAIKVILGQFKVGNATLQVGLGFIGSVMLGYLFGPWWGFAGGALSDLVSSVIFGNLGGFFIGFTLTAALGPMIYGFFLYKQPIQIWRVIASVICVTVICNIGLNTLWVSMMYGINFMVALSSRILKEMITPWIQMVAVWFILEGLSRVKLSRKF
T5 sequence (Q1GBJ0 whole entry): as the sequence (Q1GBJ0 whole entry) above
T5 sequence (Q1G930 entry or part of it): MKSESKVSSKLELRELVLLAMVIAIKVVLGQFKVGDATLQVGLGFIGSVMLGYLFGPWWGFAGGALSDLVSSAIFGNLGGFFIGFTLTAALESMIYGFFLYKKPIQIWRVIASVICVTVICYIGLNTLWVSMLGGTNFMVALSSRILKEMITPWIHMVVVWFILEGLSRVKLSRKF
T5 sequence (Q1GBI9 whole entry, further chain): as the sequence (Q1GBI9 whole entry) above
T5 sequence (Q1GBI8 entry or part of it, further chain): as the sequence (Q1GBI8 entry or part of it) above
T3 sequence (Q1G930 entry or part of it): as the sequence (Q1G930 entry or part of it) above
T2 sequence (Q1G929 entry or part of it): as the sequence (Q1G929 entry or part of it, further chain) above
T6 sequence (Q1GBI8 entry or part of it): as the sequence (Q1GBI8 entry or part of it) above
T6 sequence (Q1GBJ0 whole entry, further chain): as the sequence (Q1GBJ0 whole entry) above
T6 sequence (Q1GBI9 whole entry, further chain): as the sequence (Q1GBI9 whole entry) above
T6 sequence (Q1G929 entry or part of it): as the sequence (Q1G929 entry or part of it, further chain) above
T4 sequence (Q1G930 entry or part of it Y122N): as the sequence (Q1G930 entry or part of it) above, with Y122N counted along it

SMILES: Nc1ncnc2c1ncn2[C@@H]1O[C@H](COP(=O)(O)OP(=O)(O)NP(=O)(O)O)[C@@H](O)[C@H]1O [AMP–PNP]
- crystal structure 3.3 Å (ECF–FolT2 [1]): EcfA and EcfA′ each bind a molecule of the nucleotide

- Kd (FolT2): 3.1 ± 1.4 nM
- Kd (FolT1 [2]): 1 ± 0.24 nM
- Kd (FolT1 [3]): 2.5 ± 1.2 nM
SMILES: Nc1nc2ncc(CNc3ccc(C(=O)N[C@@H](CCC(=O)O)C(=O)O)cc3)nc2c(=O)[nH]1 [folate]
- radiolabelled folate uptake in proteoliposomes (ECF–FolT1): Both ECF transporters mediated association of radiolabelled folate with the proteoliposomes
- radiolabelled folate uptake and efflux in proteoliposomes (ECF–FolT2 [4]): ECF transporters indeed translocate their substrates across the membrane

SMILES: Nc1ncnc2c1ncn2[C@@H]1O[C@H](COP(=O)(O)OP(=O)(O)OP(=O)(O)O)[C@@H](O)[C@H]1O [ATP]
- coupled-enzyme ATPase assay in proteoliposomes (ECF–FolT2 [5]): we also measured the ATPase activity of ECF–FolT2 in the proteoliposomes
